Activity calls are given as the source filed them. The calls are words filed in the database; no cut-off is given here.
Experiments:
in vitro = settings: human, WI38 cells and HepG2 cells
Description: Selectivity index, ratio of IC50 for human WI38 cells to IC50 for human HepG2 cells

HepG2 [1] = experiment: Anticancer activity against human HepG2 cells assessed as reduction in cell viability by MTT assay; type: functional, cell-based
[2] = Anticancer activity against […] cells assessed as reduction in cell viability by MTT assay; type: functional, cell-based; settings: Mus musculus
WI-38 = experiment: Cytotoxicity against human WI-38 cells assessed as reduction in cell viability by MTT assay; type: cell-based; settings: for IC50: Homo sapiens, WI-38; for EC100: human, wi-38
MCF7 [3] = experiment: cells; settings: Homo sapiens
Description: Anticancer activity against human MCF7 cells assessed as reduction in cell viability by MTT assay

[4] = target: Matrix metalloproteinase-9 (Homo sapiens, UniProt P14780); experiment: Inhibition of MMP-9 (unknown origin) by colorimetric assay
Sequence of Matrix metalloproteinase-9 (P14780 whole entry): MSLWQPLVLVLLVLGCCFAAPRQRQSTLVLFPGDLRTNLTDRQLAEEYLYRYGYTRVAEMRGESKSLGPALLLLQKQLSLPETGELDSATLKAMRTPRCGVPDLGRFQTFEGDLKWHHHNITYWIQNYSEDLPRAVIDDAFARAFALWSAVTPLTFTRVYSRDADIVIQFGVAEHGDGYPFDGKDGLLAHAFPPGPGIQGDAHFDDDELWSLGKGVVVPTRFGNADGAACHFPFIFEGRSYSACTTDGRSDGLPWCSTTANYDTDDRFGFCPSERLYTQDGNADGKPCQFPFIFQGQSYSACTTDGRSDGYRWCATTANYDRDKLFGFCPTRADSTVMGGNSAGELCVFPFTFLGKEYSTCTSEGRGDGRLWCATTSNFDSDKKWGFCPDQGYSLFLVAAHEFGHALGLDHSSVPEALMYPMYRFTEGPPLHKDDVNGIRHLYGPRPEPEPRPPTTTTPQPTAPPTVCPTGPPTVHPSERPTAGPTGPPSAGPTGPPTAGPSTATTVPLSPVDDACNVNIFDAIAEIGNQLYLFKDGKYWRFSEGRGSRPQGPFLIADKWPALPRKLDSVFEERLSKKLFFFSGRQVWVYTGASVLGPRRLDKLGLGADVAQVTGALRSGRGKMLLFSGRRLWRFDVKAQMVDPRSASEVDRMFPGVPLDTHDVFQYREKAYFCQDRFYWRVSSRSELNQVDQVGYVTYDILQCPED

Collagenase 3 = Collagenase 3 (Homo sapiens, UniProt P45452); experiment: Inhibition of MMP-13 (unknown origin) by colorimetric assay
[5] = target: 72 kDa type IV collagenase (Homo sapiens, UniProt P08253); experiment: Inhibition of MMP-2 (unknown origin) by colorimetric assay
Sequence of 72 kDa type IV collagenase (P08253 whole entry): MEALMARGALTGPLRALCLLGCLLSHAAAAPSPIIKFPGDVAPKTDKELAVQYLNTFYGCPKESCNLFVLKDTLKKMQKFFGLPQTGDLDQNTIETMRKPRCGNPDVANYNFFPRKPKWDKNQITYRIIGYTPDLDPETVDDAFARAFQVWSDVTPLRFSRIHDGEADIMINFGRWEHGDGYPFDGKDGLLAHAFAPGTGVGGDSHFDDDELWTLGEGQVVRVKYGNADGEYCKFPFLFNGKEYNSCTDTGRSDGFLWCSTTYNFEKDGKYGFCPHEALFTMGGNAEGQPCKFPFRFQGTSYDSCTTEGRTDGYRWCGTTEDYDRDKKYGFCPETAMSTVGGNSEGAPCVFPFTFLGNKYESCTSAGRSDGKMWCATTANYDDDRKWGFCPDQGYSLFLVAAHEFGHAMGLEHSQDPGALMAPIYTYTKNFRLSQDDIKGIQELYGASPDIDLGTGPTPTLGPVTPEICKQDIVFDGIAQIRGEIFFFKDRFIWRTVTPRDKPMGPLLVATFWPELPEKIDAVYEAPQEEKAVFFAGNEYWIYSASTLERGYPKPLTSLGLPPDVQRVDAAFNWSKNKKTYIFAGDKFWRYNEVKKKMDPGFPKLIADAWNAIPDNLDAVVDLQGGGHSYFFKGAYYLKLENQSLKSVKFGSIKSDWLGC

HepG2 [6] = experiment: Induction of apoptosis in human HepG2 cells assessed as increase in caspase-3/7 activation by flow cytometric analysis; type: functional
[7] = Induction of apoptosis in […] cells assessed as early apoptosis by annexinV/propidium iodide staining based by flow cytometry (reference value: 0.02+/- 0.01%); type: functional, Mus musculus
MCF7 [8] = experiment: Induction of apoptosis in human MCF-7 cells assessed as total apoptosis by annexin V/propidium iodide staining based by flow cytometry (reference value: 0.48+/- 0.01%); type: functional
MCF7 [9] = experiment: Induction of apoptosis in human MCF-7 cells assessed as early apoptosis by annexinV/propidium iodide staining based by flow cytometry (reference value: 0.47+/- 0.01%); type: functional
NFS-60 = experiment: Induction of cell morphological changes in […] cells assessed as loss in cell shape by microscopic analysis; type: functional, cell-based; settings: Mus musculus
MCF7 [10] = experiment: Induction of cell morphological changes in human MCF7 cells assessed as loss in cell shape by microscopic analysis; type: functional, cell-based
HepG2 [11] = experiment: Induction of apoptosis in human HepG2 cells assessed as late apoptosis by annexinV/propidium iodide staining based by flow cytometry (reference value: 0.1+/- 0.001%); type: functional
[12] = Induction of apoptosis in […] cells assessed as late apoptosis by annexinV/propidium iodide staining based by flow cytometry (reference value: 0.015+/- 0.01%); type: functional, Mus musculus
HepG2 [13] = experiment: Induction of apoptosis in human HepG2 cells assessed as total apoptosis by annexin/propidium iodide staining based by flow cytometry (reference value: 0.169+/- 0.02%); type: functional
MCF7 [14] = experiment: Induction of apoptosis in human MCF-7 cells assessed as late apoptosis by annexinV/propidium iodide staining based by flow cytometry (reference value: 0.01+/- 0.001%); type: functional
[15] = Induction of apoptosis in […] cells assessed as increase in caspase-3/7 activation by flow cytometric analysis; type: functional, Mus musculus
HepG2 [16] = experiment: Induction of cell morphological changes in human HepG2 cells assessed as loss in cell shape by microscopic analysis; type: functional, cell-based
[17] = Induction of apoptosis in […] cells assessed as total apoptosis by annexinV/propidium iodide staining based by flow cytometry (reference value: 0.495+/- 0.01%); type: functional, Mus musculus
MCF7 [18] = experiment: Induction of apoptosis in human MCF7 cells assessed as increase in caspase-3/7 activation by flow cytometric analysis; type: functional
HepG2 [19] = experiment: Induction of apoptosis in human HepG2 cells assessed as early apoptosis by annexinV/propidium iodide staining based by flow cytometry (reference value: 0.78+/- 0.09%); type: functional

Row | SMILES | selectivity ratio (in vitro) | IC50 (HepG2 [1]) [nM] | IC50 [2] [nM] | IC50 (WI-38) [nM] | EC100 (WI-38) [nM] | IC50 (MCF7 [3]) [nM] | other results
1 | Cc1ccc(N(C(=O)c2ccc([N+](=O)[O-])cc2)C(C(=O)Nc2ccc([N+](=O)[O-])cc2)c2ccccc2)cc1 (centres undefined) | 2.44 | 74.6 | 92.3 | 182 | 113.6 | 104 | –
2 | NCC(=O)N(c1ccccc1)C(C(=O)Nc1ccc([N+](=O)[O-])cc1)c1ccccc1 (centres undefined) | 1.44 | 152 | 168 | 218 | 84.9 | 165 | –
3 | O=C(Nc1ccc([N+](=O)[O-])cc1)C(c1ccccc1)N(C(=O)c1ccc(C(F)(F)F)cc1)c1ccccc1 (centres undefined) | 5.75 | 8 | 11.6 | 46 | 26.9 | 12 | –
4 | O=C(Nc1ccc([N+](=O)[O-])cc1)C(c1ccccc1)N(C(=O)CCC(=O)N(c1ccccc1)C(C(=O)Nc1ccc([N+](=O)[O-])cc1)c1ccccc1)c1ccccc1 (centres undefined) | 1.56 | 125 | 137 | 195 | 141.4 | 164 | –
5 | CC(C)(C)OC(=O)NCC(=O)N(c1ccccc1)C(C(=O)Nc1ccc([N+](=O)[O-])cc1)c1ccccc1 (centres undefined) | 1.2 | 35.9 | 31.9 | 42.9 | 18.2 | 18 | –
6 | O=C(Nc1ccc([N+](=O)[O-])cc1)C(c1ccccc1)N(C(=O)c1ccccc1[N+](=O)[O-])c1ccc(I)cc1 (centres undefined) | 1.77 | 180 | 182 | 318 | 188.3 | 181 | –
7 | O=C(Nc1ccc([N+](=O)[O-])cc1)C(c1ccccc1)N(C(=O)c1ccccc1[N+](=O)[O-])c1ccccc1 (centres undefined) | 10.1 | 41.8 | 29.4 | 422 | 130.2 | 33.1 | –
8 | Cc1ccc(N(C(=O)c2ccccc2[N+](=O)[O-])C(C(=O)Nc2ccc([N+](=O)[O-])cc2)c2ccccc2)cc1 (centres undefined) | 3.25 | 153 | 182 | 499 | 305.4 | 295 | –
9 | COc1ccc(S(=O)(=O)N(CC(=O)NO)CC(C)C)cc1 | – | – | – | – | – | – | IC50 [4]: 78.5 nM; IC50 (Collagenase 3): 131 nM; IC50 [5]: 69 nM
10 | COc1cccc2c1C(=O)c1c(O)c3c(c(O)c1C2=O)C[C@@](O)(C(=O)CO)C[C@@H]3O[C@H]1C[C@H](N)[C@H](O)[C@H](C)O1 [DOXORUBICIN] | – | – | 13 | – | 12.1 | – | Activity (HepG2 [6]): 48.09%; Activity [7]: 11.379%; Activity (MCF7 [8]): 33.974%; Activity (MCF7 [9]): 13.53%; Activity (NFS-60): Active; Activity (MCF7 [10]): Active; Activity (HepG2 [11]): 25.49%; Activity [12]: 23.215%; Activity (HepG2 [13]): 36.08%; Activity (MCF7 [14]): 20.445%; Activity [15]: 45.39%; Activity (HepG2 [16]): Active; Activity [17]: 34.595%; Activity (MCF7 [18]): 42.94%; Activity (HepG2 [19]): 10.59%
11 | O=C(Nc1ccc([N+](=O)[O-])cc1)C(c1ccc([N+](=O)[O-])cc1)N(C(=O)c1ccccc1[N+](=O)[O-])c1ccccc1 (centres undefined) | 1.32 | 159 | 162 | 210 | 158.3 | 172 | –
12 | O=C(Nc1ccc([N+](=O)[O-])cc1)C(c1ccc([N+](=O)[O-])cc1)N(C(=O)c1ccc([N+](=O)[O-])cc1)c1ccccc1 (centres undefined) | 0.768 | 187 | 189 | 143 | 82.4 | 203 | –
13 | O=CN(c1ccccc1)C(C(=O)Nc1ccc([N+](=O)[O-])cc1)c1ccccc1 (centres undefined) | 5.09 | 107 | 94.1 | 543 | 161.5 | 55.8 | –
14 | Cc1ccc(N(C(=O)c2ccc(Cl)cc2)C(C(=O)Nc2ccc([N+](=O)[O-])cc2)c2ccccc2)cc1 (centres undefined) | 0.842 | 50.7 | 54.2 | 42.7 | 18.25 | 64 | –
15 | O=C(Nc1ccc([N+](=O)[O-])cc1)C(c1ccccc1[N+](=O)[O-])N(C(=O)C(F)(F)F)c1ccccc1 (centres undefined) | 5.06 | 68.8 | 52.6 | 348 | 112.4 | 14.8 | –
16 | Cc1ccc(N(C(=O)c2ccc(Br)cc2)C(C(=O)Nc2ccc([N+](=O)[O-])cc2)c2ccccc2)cc1 (centres undefined) | 2.34 | 111 | 121 | 260 | 36.1 | 122 | –
17 | O=C(Nc1ccc([N+](=O)[O-])cc1)C(c1ccccc1)N(C(=O)/C=C/c1ccccc1)c1ccccc1 (centres undefined) | 1.49 | 19.5 | 13 | 29.1 | 4.8 | 12.9 | –
18 | O=C(Nc1ccc([N+](=O)[O-])cc1)C(c1ccccc1)N(C(=O)c1ccc([N+](=O)[O-])cc1)c1ccccc1 (centres undefined) | 56.7 | 21.2 | 12.1 | 1200 | 469.8 | 26.9 | –
19 | Cc1ccc(N(C(=O)c2ccc(C(F)(F)F)cc2)C(C(=O)Nc2ccc([N+](=O)[O-])cc2)c2ccccc2)cc1 (centres undefined) | 3.04 | 9.4 | 10.3 | 28.6 | 14.9 | 8 | –
20 | CC(=O)N(c1ccccc1)C(C(=O)Nc1ccc([N+](=O)[O-])cc1)c1ccccc1 (centres undefined) | 2.83 | 180 | 287 | 509 | 301 | 309 | –
21 | O=C(Nc1ccc([N+](=O)[O-])cc1)C(c1ccccc1)N(C(=O)Cc1ccccc1)c1ccccc1 (centres undefined) | 46 | 17.8 | 17.6 | 819 | 290.7 | 26.4 | –
22 | O=C(Nc1ccc([N+](=O)[O-])cc1)C(c1ccccc1)N(C(=O)C(Cl)(Cl)Cl)c1ccccc1 (centres undefined) | 148 | 30.9 | 22.8 | 4560 | 1912 | 11 | –
23 | O=C(Nc1ccc([N+](=O)[O-])cc1)C(c1ccccc1)N(C(=O)c1ccccc1[N+](=O)[O-])c1cccc(Br)c1 (centres undefined) | 1.44 | 138 | 156 | 199 | 89.7 | 168 | –
24 | O=C(Nc1ccc([N+](=O)[O-])cc1)C(c1ccccc1)N(C(=O)C(F)(F)F)c1ccccc1 (centres undefined) | 70.3 | 20.8 | 23.9 | 1460 | 540.3 | 28.4 | –
25 | O=C(Nc1ccc([N+](=O)[O-])cc1)C(c1ccc(Br)cc1)N(C(=O)c1ccccc1[N+](=O)[O-])c1ccccc1 (centres undefined) | 3.06 | 76.1 | 82.1 | 233 | 12.7 | 84.7 | –
26 | O=C(Nc1ccc([N+](=O)[O-])cc1)C(c1ccccc1[N+](=O)[O-])N(C(=O)c1ccccc1[N+](=O)[O-])c1ccccc1 (centres undefined) | 0.828 | 435 | 208 | 360 | 198.9 | 184 | –

From ChEMBL document CHEMBL4680119, “Battle tactics against MMP-9; discovery of novel non-hydroxamate MMP-9 inhibitors endowed with PI3K/AKT signaling attenuation and caspase 3/7 activation via Ugi bis-amide synthesis” (Eur J Med Chem, 2020)
